From the kinase profiling compilation of Christmann-Franck et al. (2016)

Key:
Assay in all cases: KINOMEscan competition binding
Details in all cases: compound 10.0 µM
NEK1 (human) = NEK1 (human) (UniProt Q96PY6)
ADCK4 (human) = ADCK4 (human) (UniProt Q96D53)
STK36 (human) = STK36 (human) (UniProt Q9NRP7)
STK35 (human) = STK35 (human) (UniProt Q8TDR2)
TIE1 (human) = TIE1 (human) (UniProt P35590)
DAPK1 (human) = DAPK1 (human) (UniProt P53355)
CSNK2A1 (human) = CSNK2A1 (human) (UniProt P68400)
NTRK2 (human) = NTRK2 (human) (UniProt Q16620)
EGFR (human) = EGFR (human) (UniProt P00533)
MAPKAPK5 (human) = MAPKAPK5 (human) (UniProt Q8IW41)
PRKACA (human) = PRKACA (human) (UniProt P17612)
MAP2K4 (human) = MAP2K4 (human) (UniProt P45985)
MUSK (human) = MUSK (human) (UniProt O15146)
NEK2 (human) = NEK2 (human) (UniProt P51955)
CDK16 (human) = CDK16 (human) (UniProt Q00536)
CDKL1 (human) = CDKL1 (human) (UniProt Q00532)
FLT4 (human) = FLT4 (human) (UniProt P35916)
MAPKAPK2 (human) = MAPKAPK2 (human) (UniProt P49137)
GSK3A (human) = GSK3A (human) (UniProt P49840)
CAMK2A (human) = CAMK2A (human) (UniProt Q9UQM7)
MAPK14 (human) = MAPK14 (human) (UniProt Q16539)
EPHA6 (human) = EPHA6 (human) (UniProt Q9UF33)
DCLK3 (human) = DCLK3 (human) (UniProt Q9C098)
TTK (human) = TTK (human) (UniProt P33981)
MAPK12 (human) = MAPK12 (human) (UniProt P53778)
SIK2 (human) = SIK2 (human) (UniProt Q9H0K1)
MAP3K10 (human) = MAP3K10 (human) (UniProt Q02779)
MAK (human) = MAK (human) (UniProt P20794)
DCLK2 (human) = DCLK2 (human) (UniProt Q8N568)
BMPR2 (human) = BMPR2 (human) (UniProt Q13873)
NTRK3 (human) = NTRK3 (human) (UniProt Q16288)
CLK3 (human) = CLK3 (human) (UniProt P49761)
EPHA4 (human) = EPHA4 (human) (UniProt P54764)
LIMK1 (human) = LIMK1 (human) (UniProt P53667)
PIK3C2G (human) = PIK3C2G (human) (UniProt O75747)
PIM2 (human) = PIM2 (human) (UniProt Q9P1W9)
PIK3CD (human) = PIK3CD (human) (UniProt O00329)
CSNK1A1L (human) = CSNK1A1L (human) (UniProt Q8N752)
CDKL5 (human) = CDKL5 (human) (UniProt O76039)
HCK (human) = HCK (human) (UniProt P08631)
Sequence of HCK (human) (P08631 whole entry, looked up): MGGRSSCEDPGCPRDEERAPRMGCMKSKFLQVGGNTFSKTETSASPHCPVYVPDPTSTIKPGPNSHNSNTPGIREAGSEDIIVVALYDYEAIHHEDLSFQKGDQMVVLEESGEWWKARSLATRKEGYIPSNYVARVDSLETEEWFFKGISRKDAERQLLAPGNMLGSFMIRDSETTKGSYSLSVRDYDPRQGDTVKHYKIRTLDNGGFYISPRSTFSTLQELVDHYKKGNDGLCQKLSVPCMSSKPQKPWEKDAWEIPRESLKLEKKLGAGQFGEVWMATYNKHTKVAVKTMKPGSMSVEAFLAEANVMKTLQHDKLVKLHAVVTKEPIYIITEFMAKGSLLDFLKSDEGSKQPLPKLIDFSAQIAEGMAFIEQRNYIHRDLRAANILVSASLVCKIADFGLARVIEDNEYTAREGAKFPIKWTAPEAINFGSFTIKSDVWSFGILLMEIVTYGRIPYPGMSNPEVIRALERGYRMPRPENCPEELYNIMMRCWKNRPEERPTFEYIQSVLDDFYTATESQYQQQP

Sequence of MAPK12 (human) (P53778 whole entry, looked up): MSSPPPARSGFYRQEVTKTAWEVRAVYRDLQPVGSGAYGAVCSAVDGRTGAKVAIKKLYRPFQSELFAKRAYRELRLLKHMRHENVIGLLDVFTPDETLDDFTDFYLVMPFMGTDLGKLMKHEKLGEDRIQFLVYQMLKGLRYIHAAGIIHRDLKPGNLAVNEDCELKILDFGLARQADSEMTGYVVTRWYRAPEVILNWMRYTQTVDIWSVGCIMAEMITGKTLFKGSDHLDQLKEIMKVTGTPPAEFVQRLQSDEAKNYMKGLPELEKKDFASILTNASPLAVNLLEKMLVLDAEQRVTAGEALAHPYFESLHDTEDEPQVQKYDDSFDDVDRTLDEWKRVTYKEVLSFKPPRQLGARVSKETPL
Sequence of PIM2 (human) (Q9P1W9 whole entry, looked up): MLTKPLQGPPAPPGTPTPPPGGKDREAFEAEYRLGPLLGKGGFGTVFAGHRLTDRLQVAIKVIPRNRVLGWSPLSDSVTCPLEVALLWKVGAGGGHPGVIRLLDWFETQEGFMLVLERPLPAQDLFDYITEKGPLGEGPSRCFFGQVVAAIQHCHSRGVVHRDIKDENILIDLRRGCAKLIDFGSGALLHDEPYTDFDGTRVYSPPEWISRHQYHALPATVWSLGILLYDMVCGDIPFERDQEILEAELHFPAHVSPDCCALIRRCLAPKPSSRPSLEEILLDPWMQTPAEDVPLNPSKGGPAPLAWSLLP
Sequence of FLT4 (human) (P35916 whole entry, looked up): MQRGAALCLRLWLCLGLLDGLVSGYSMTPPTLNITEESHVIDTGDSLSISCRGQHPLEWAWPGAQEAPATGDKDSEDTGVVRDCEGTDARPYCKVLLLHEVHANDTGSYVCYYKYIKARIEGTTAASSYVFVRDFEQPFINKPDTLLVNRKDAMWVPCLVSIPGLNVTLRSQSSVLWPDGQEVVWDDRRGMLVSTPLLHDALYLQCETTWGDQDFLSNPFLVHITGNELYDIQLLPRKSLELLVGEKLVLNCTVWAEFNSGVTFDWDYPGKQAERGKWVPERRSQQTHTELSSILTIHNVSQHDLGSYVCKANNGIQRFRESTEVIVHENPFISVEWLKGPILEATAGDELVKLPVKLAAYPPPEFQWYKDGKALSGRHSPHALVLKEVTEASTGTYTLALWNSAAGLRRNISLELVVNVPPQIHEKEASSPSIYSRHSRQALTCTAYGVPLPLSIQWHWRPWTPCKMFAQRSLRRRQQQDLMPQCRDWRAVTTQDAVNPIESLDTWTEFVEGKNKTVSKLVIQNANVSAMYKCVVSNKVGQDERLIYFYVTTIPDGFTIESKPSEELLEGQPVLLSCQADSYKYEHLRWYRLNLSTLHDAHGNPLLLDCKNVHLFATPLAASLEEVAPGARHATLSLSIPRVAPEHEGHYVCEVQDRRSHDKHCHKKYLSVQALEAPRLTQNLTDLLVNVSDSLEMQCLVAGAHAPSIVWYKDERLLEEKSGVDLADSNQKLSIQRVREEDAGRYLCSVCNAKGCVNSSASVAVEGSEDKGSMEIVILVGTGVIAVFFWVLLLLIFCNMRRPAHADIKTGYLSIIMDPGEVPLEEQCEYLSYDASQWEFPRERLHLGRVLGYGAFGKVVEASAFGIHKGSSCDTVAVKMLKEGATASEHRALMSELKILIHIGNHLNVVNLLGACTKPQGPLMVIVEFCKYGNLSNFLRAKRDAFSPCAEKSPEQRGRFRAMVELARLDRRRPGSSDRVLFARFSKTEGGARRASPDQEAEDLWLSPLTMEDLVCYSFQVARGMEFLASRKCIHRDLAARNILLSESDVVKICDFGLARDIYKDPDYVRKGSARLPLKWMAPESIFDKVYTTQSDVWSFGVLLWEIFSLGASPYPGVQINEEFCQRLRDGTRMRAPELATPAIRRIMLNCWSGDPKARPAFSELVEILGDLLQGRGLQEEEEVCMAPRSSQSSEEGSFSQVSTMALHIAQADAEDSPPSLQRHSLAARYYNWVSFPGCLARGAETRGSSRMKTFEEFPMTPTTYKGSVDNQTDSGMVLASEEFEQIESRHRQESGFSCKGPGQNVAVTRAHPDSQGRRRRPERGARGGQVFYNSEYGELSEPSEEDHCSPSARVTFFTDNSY
Sequence of CLK3 (human) (P49761 whole entry, looked up): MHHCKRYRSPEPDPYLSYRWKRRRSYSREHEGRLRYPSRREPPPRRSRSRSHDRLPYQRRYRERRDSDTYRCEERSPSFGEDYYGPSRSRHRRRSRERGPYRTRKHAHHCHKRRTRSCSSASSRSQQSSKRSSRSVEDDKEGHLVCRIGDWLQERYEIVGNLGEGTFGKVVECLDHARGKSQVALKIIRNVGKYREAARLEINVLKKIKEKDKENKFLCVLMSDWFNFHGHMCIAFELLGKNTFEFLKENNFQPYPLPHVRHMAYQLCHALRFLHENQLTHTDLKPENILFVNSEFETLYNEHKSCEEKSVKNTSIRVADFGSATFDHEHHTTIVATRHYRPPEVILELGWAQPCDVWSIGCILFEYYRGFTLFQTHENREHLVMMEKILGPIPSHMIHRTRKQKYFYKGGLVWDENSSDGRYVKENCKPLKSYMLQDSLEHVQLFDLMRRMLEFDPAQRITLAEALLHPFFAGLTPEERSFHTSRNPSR
Sequence of BMPR2 (human) (Q13873 whole entry, looked up): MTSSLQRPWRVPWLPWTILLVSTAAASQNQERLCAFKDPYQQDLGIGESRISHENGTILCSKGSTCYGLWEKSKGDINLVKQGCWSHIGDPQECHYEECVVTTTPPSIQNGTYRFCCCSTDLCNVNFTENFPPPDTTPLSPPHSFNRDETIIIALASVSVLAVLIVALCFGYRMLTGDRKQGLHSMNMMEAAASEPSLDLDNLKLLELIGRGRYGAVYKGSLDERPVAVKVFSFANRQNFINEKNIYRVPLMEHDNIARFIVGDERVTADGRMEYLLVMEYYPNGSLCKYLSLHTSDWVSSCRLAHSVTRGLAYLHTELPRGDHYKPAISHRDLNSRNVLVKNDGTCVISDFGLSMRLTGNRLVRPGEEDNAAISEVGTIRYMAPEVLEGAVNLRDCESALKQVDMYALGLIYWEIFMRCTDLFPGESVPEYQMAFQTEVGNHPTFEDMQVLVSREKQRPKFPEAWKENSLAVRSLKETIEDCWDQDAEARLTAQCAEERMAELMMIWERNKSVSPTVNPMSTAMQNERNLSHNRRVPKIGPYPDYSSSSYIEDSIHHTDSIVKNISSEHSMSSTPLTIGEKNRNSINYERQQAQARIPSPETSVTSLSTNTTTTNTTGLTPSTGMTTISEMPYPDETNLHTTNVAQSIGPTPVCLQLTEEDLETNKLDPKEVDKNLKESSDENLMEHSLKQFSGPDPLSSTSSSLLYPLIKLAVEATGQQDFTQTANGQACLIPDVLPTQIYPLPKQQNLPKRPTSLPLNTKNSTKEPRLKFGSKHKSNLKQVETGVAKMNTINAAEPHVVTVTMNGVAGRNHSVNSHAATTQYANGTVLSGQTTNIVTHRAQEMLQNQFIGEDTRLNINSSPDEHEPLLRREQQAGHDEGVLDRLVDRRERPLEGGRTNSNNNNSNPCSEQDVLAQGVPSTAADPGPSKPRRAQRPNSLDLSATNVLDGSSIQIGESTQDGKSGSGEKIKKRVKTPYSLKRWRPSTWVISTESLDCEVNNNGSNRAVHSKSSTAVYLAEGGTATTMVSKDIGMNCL
Sequence of ADCK4 (human) (Q96D53 whole entry, looked up): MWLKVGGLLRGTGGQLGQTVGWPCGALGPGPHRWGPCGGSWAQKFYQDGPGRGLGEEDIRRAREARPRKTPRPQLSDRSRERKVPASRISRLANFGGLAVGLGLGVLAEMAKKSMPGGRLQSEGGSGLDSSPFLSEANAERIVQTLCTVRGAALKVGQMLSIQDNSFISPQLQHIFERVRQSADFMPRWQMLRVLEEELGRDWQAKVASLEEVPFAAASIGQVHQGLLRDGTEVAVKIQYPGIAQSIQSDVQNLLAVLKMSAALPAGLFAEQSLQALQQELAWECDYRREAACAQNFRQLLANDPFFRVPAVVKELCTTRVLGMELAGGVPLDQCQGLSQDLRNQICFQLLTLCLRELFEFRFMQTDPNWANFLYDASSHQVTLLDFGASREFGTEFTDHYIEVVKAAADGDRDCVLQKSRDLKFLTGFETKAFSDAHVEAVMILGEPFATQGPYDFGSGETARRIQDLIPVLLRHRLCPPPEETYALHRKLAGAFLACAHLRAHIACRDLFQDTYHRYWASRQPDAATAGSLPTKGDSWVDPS
Sequence of CSNK2A1 (human) (P68400 whole entry, looked up): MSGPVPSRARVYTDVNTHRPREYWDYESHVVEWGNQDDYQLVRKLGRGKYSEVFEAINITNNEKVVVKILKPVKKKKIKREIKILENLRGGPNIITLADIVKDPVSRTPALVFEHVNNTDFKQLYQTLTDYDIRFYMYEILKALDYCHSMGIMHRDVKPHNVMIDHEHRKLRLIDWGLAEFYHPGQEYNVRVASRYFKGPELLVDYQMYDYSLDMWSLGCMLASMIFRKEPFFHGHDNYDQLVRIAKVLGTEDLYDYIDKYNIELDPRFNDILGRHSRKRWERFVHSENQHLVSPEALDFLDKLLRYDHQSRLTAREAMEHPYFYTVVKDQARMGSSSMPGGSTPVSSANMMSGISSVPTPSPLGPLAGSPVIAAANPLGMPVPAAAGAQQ

With C=CC(=O)Nc1cc(-n2c(=O)ccc3cnc4ccc(-c5cn[nH]c5)cc4c32)ccc1C the kinase still bound, per cent of control (NEK1 (human)) was 93%, the kinase still bound, per cent of control (ADCK4 (human)) was 86% and the kinase still bound, per cent of control (STK36 (human)) was 79%. For the same compound, the kinase still bound, per cent of control (STK35 (human)) was 98%, the kinase still bound, per cent of control (TIE1 (human)) was 100% and the kinase still bound, per cent of control (DAPK1 (human)) was 70%. It also gave a kinase still bound, per cent of control (CSNK2A1 (human)) of 4.6%, a kinase still bound, per cent of control (NTRK2 (human)) of 51% and a kinase still bound, per cent of control (EGFR (human)) of 30%. The kinase still bound, per cent of control (MAPKAPK5 (human)) was 78%, the kinase still bound, per cent of control (PRKACA (human)) was 100% and the kinase still bound, per cent of control (MAP2K4 (human)) was 14%. The kinase still bound, per cent of control (MUSK (human)) was 93%, the kinase still bound, per cent of control (NEK2 (human)) was 100% and the kinase still bound, per cent of control (CDK16 (human)) was 97%. The kinase still bound, per cent of control (CDKL1 (human)) was 33%, the kinase still bound, per cent of control (FLT4 (human)) was 65% and the kinase still bound, per cent of control (MAPKAPK2 (human)) was 100%. For the same compound, the kinase still bound, per cent of control (GSK3A (human)) was 13%, the kinase still bound, per cent of control (CAMK2A (human)) was 21% and the kinase still bound, per cent of control (MAPK14 (human)) was 97%. For the same compound, the kinase still bound, per cent of control (EPHA6 (human)) was 94%, the kinase still bound, per cent of control (DCLK3 (human)) was 100% and the kinase still bound, per cent of control (TTK (human)) was 21%. The kinase still bound, per cent of control (MAPK12 (human)) was 98%, the kinase still bound, per cent of control (SIK2 (human)) was 62% and the kinase still bound, per cent of control (MAP3K10 (human)) was 100%. For the same compound, the kinase still bound, per cent of control (MAK (human)) was 94%, the kinase still bound, per cent of control (DCLK2 (human)) was 100% and the kinase still bound, per cent of control (BMPR2 (human)) was 4.6%. The kinase still bound, per cent of control (NTRK3 (human)) was 93%, the kinase still bound, per cent of control (CLK3 (human)) was 46% and the kinase still bound, per cent of control (EPHA4 (human)) was 97%. The kinase still bound, per cent of control (LIMK1 (human)) was 100%, the kinase still bound, per cent of control (PIK3C2G (human)) was 5.9% and the kinase still bound, per cent of control (PIM2 (human)) was 69%. For the same compound, the kinase still bound, per cent of control (PIK3CD (human)) was 27%, the kinase still bound, per cent of control (CSNK1A1L (human)) was 90% and the kinase still bound, per cent of control (CDKL5 (human)) was 3.3%. The kinase still bound, per cent of control (HCK (human)) was 100%.

Compound COc1cc2ncnc(-n3nc(-c4ccccn4)nc3N)c2cc1OC has a kinase still bound, per cent of control (NEK1 (human)) of 36%, a kinase still bound, per cent of control (ADCK4 (human)) of 14% and a kinase still bound, per cent of control (STK36 (human)) of 7.4%. The kinase still bound, per cent of control (STK35 (human)) was 24%, the kinase still bound, per cent of control (TIE1 (human)) was 93% and the kinase still bound, per cent of control (DAPK1 (human)) was 3.6%. It also gave a kinase still bound, per cent of control (CSNK2A1 (human)) of 4.4%, a kinase still bound, per cent of control (NTRK2 (human)) of 47% and a kinase still bound, per cent of control (EGFR (human)) of 52%. For the same compound, the kinase still bound, per cent of control (MAPKAPK5 (human)) was 100%, the kinase still bound, per cent of control (PRKACA (human)) was 100% and the kinase still bound, per cent of control (MAP2K4 (human)) was 3.8%. It also gave a kinase still bound, per cent of control (MUSK (human)) of 71%, a kinase still bound, per cent of control (NEK2 (human)) of 57% and a kinase still bound, per cent of control (CDK16 (human)) of 47%. For the same compound, the kinase still bound, per cent of control (CDKL1 (human)) was 21%, the kinase still bound, per cent of control (FLT4 (human)) was 14% and the kinase still bound, per cent of control (MAPKAPK2 (human)) was 100%. The kinase still bound, per cent of control (GSK3A (human)) was 73%, the kinase still bound, per cent of control (CAMK2A (human)) was 44% and the kinase still bound, per cent of control (MAPK14 (human)) was 50%. For the same compound, the kinase still bound, per cent of control (EPHA6 (human)) was 23%, the kinase still bound, per cent of control (DCLK3 (human)) was 100% and the kinase still bound, per cent of control (TTK (human)) was 20%. For the same compound, the kinase still bound, per cent of control (MAPK12 (human)) was 21%, the kinase still bound, per cent of control (SIK2 (human)) was 61% and the kinase still bound, per cent of control (MAP3K10 (human)) was 62%. For the same compound, the kinase still bound, per cent of control (MAK (human)) was 100%, the kinase still bound, per cent of control (DCLK2 (human)) was 88% and the kinase still bound, per cent of control (BMPR2 (human)) was 88%. The kinase still bound, per cent of control (NTRK3 (human)) was 100%, the kinase still bound, per cent of control (CLK3 (human)) was 3.6% and the kinase still bound, per cent of control (EPHA4 (human)) was 34%. The kinase still bound, per cent of control (LIMK1 (human)) was 22%, the kinase still bound, per cent of control (PIK3C2G (human)) was 8.2% and the kinase still bound, per cent of control (PIM2 (human)) was 78%. It also gave a kinase still bound, per cent of control (PIK3CD (human)) of 5%, a kinase still bound, per cent of control (CSNK1A1L (human)) of 32% and a kinase still bound, per cent of control (CDKL5 (human)) of 0.3%. It also gave a kinase still bound, per cent of control (HCK (human)) of 12%.
